Laboratory results taken from article PMC9374744, “Structural basis for receptor selectivity and inverse agonism in S1P5 receptors” (Nature Communications, 2022).

Biological target: T1, S1P5 (Homo sapiens, UniProt Q9H228, G231K/G234L/INS226[…]/INS240[…]/P227A/P230V/R224A/R225D/R229Q/R239A/S237M/T232D/T236K/T238R)
T1 construct: The C-terminus was truncated after Val321; hemagglutinin signal peptide (HA; […]) (N); FLAG-tag (N); Ala-Gly-Arg-Ala linker (N); PreScission cleavage site (C); 10× His tag (C, cleaved yes); made in house; host or cells: Sf9 insect cells (baculovirus, Bac-to-Bac)
T1 sequence (Q9H228 other isoform, or with tags, fused parts or gaps with the stated changes): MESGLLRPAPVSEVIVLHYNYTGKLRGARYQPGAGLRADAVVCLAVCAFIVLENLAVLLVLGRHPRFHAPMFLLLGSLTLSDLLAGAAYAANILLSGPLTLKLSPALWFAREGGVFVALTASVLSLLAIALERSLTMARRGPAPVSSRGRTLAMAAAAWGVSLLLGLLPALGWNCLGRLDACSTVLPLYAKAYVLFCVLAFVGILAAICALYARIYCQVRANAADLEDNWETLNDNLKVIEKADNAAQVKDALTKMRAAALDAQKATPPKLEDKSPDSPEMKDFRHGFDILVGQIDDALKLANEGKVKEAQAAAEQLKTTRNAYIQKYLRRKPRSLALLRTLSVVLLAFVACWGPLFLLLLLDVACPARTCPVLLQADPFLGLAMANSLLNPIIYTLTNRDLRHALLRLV
Assay: Microscale fluorescent (CPM) thermal stability assay
Assay type: binding
Settings: CPM fluorescence thermal shift; purified S1P5 crystallization construct
Description: Cells were thawed and lysed by repetitive washes (Dounce homogenization on ice, and centrifugation at 128,600×g for 30 min at 4 °C) in hypotonic buffer (10 mM HEPES pH 7.5, 20 mM KCl, and 10 mM MgCl2) and high osmotic buffer (10 mM HEPES pH 7.5, 20 mM KCl, 10 mM MgCl2, and 1 M NaCl) with an addition of protease inhibitor cocktail [PIC; 500 µM 4-(2-aminoethyl)benzenesulfonyl fluoride hydrochloride (Gold Biotechnology), 1 µM E-64 (Cayman Chemical), 1 µM leupeptin (Cayman Chemical), 150 nM aprotinin (A.G. Scientific)] with the ratio of 50 μl per 100 ml of lysis buffer. […] Stability and stabilizing effect of the ligand were measured by microscale fluorescent thermal stability assay[55] […]
Microscale fluorescent thermal stability assay[55] was conducted using a CPM dye (7-Diethylamino-3-(4-maleimidophenyl)-4-methylcoumarin, Invitrogen) dissolved in DMF at 10 mM. […] 1 µg of the target protein was added to 50 µL of working buffer (25 mM HEPES, 250 mM NaCl, 10%v/v glycerol, 0.05%w/v DDM, 0.01%w/v CHS) with CPM, and the melting curve was recorded on a Rotor-Gene Q real-time PCR cycler (Qiagen) using a temperature ramp from 28 to 98 °С with 2 °С/min rate. The fluorescence signal was measured in the Blue channel (excitation 365 nm, emission 460 nm), and the melting temperature was calculated as the maximum of the fluorescence signal derivative with respect to temperature.

## O=C(O)CCCN1CCc2cccc(OCCc3cccc4ccccc34)c2CC1 [ONO-5430608, 4-{6-[2-(1-naphthyl)ethoxy]-1,2,4,5-tetrahydro-3H-3-benzazepin-3-yl} butanoic acid]
  increase of the thermal stability of S1P5: 19 °C
